{"source": "patent US10100011B2", "about": "“Pentadienoyl piperidine derivative and use thereof” (Industry-Academic Cooperation Foundation, Yonsei University, priority 2014, dated 2018)", "key": {"[1]": {"system": "3T3L1 cells", "assay": "Adipocyte differentiation inhibition in preadipocytes (Oil-red O staining)", "format": "cell-based, mouse", "conditions": "Mus musculus, 3T3-L1, treated every two days during 14 days differentiation, Oil-red O O.D. 600 nm, read-out: adipocyte differentiation inhibition activity, EC50 value", "protocol": "Preadipocytes, 3T3L1 cells, were aliquoted into a 12-well plate and cultured in a DMEM medium containing 1% penicillin-streptomycin, 1% nonessential amino acid, and 10% fetal bovine serum (FBS) in a 5% CO2 incubator at 37° C. until confluence. The 3T3L1 cells grown to confluence were cultured for two days in a medium containing 0.5 mM isobutyl-methylxanthine, 1 μM dexamethasone (MDI), and 1 μg/ml insulin, thereby being differentiated into adipocytes. Subsequently, the differentiated adipocytes were further cultured for two days in a DMEM medium including 1 μg/ml insulin, thereby being differentiated into mature adipocytes. Subsequently, the differentiated mature adipocytes were further cultured for 10 days while replacing a used DMEM medium with a new DMEM medium every two days. As a result, completely differentiated adipocytes were formed.\n3T3-L1 cells were treated with each of a total of four novel compound types at different concentrations every two days from the first day of cell differentiation induction by addition of DMI. Each of the derivative compounds was dissolved in DMSO and then used. A negative control group including only DMSO was included in this experiment. Cell culture was carried out for 14 days. When differentiation was completed, a medium was removed and lipid droplets contained in differentiated adipocytes were stained. To stain the lipid droplets, cells were washed with phosphate buffered saline (PBS) twice and then fixed with 10% buffered neutral formalin for one hour, followed by washing with PBS once. Subsequently, 1 ml of Oil-red-O dye for staining lipid droplets red was fed into a 12-well plate and lipid droplets were stained for one hour, followed by washing with distilled water twice. To measure the concentration of neutral fat contained in the differentiated 3T3L1 cells, the stained lipid droplets were dissolved in 1 ml of isobutanol, followed by measuring an O.D value at 600 nm."}, "[2]": {"system": "C57BL/6J mice", "assay": "Body weight and visceral fat weight in mice fed high-fat diet", "format": "in vivo, mouse", "conditions": "about 0.05% compound in high-fat diet, 10 weeks", "protocol": "(§1) An obesity induction diet used in this experiment was a high-fat diet (HFD: 40% fat calories, 17 g of lard+3% corn oil/100 g diet), and the compositions of diets including the LJ-2501, LJ-2488, LJ-2495, LJ-2496 compounds were identical to that of HFD, except that each of the compounds was included in an amount of about 0.05% (Table 2). As a control drug, an anti-obesity drug, sibutramine (Sibut), was added in an amount of about 0.01% to the high-fat diet and a normal diet group (Chow) was fed with commercial rodent chow.\n(§2) 5-week old 40 male C57BL/6J mice (Orient Bio., Korea) were fed with hard feed and accommodated in a laboratory environment for one week. Subsequently, in accordance with a randomized block method, the mice were randomly grouped into a normal diet group, a high-fat diet control group, two experimental substance groups, and […] and raised for a total of 10 weeks (n=8/group). Diets were supplied with water between 10 am and 11 am every day. An intake amount was measured every day and the body weights of the mice were measured every week. To prevent temporal weight change due to feed intake, feedboxes were removed and, after two hours, the body weights were measured. The experimental animals were fasted for 12 hours or more and then anesthetized with diethyl ether, followed by collecting blood, liver, and visceral adipose tissues (epididymal fat, perirenal fat, mesenteric fat, and retroperitoneal fat). The collected samples were washed with 0.1 M phosphate buffered saline (pH 7.4) and then weighed. Blood samples collected from abdominal aortas were centrifuged at 1000×g for 15 minutes, thereby separating plasma."}, "[3]": {"system": "C57BL/6J mice", "assay": "Liver weight, liver tissue lipid concentrations and hepatic function indicators in blood of mice fed high-fat diet", "format": "in vivo, mouse", "conditions": "about 0.05% compound in high-fat diet, 10 weeks", "protocol": "as §1, §2\nLipid components were extracted from liver tissue in accordance with the method by Folch, et al. (Folch J, Lees M, Sloane Stanley G H. A simple method for the isolation and purification of total lipids from animal tissues. J Biol Chem. 1957; 226:497-509). In particular, 1 mL of distilled water was added to 0.25 g of a liver tissue sample and then homogenized by means of a Polytron homogenizer (IKA-WERKE GmbH & Co., Ultra-Turrax, Staufen, Germany). To the homogenized solution, 5 mL of a solution including chloroform and methanol (mixed in a ratio of 2:1, v/v) was added, followed by uniformly mixing. Subsequently, centrifugation was carried out at 1000×g for 10 minutes and a lower solution was separated. To a formed supernatant, 2 mL of a mixture including chloroform and methanol (mixed in a ratio of 2:1, v/v) was added, followed by repeating the same procedure. As a result, lipid components were completely isolated from the liver samples. To an obtained lower solution, 3 mL of a mixture including chloroform, methanol, and 0.05% CaCl2 (mixed in a ratio of 3:48:47, v/v/v) was added, followed by mixing for one minute. Subsequently, centrifugation was carried out at 1000×g for 10 minutes. A final lower solution was collected and completely dried with a nitrogen gas. Subsequently, the dried lipid was dissolved in 1 mL of methanol and used for lipid component analysis. The concentrations of neutral fat and cholesterol in the lipid extracts extracted from the liver tissue were measured using the same commercial lipid analysis kit (Bio Clinical System) as that used in the plasma analysis.\nGlutamate oxaloacetate transferase (GOT) and glutamate pyruvate transferase (GPT) activity in serum during fasting were measured by means of an automatic biochemical analyzer (Express Plus, Chiron Diagnostics Co., USA). A kit for analysis was purchased from Bayer (Tarrytown, N.Y., USA)."}, "[4]": {"system": "C57BL/6J mice", "assay": "Inflammatory cytokine concentrations in blood of mice fed high-fat diet (ELISA)", "format": "in vivo, mouse", "conditions": "about 0.05% compound in high-fat diet, 10 weeks", "protocol": "as §1, §2\nThe concentrations of TNFα, MCP-1, IL-6, leptin, and insulin in plasma were measured according to an ELISA method using the Mouse Adipokine Magnetic Bead Panel kit (MADKMAG-71K, EMD Millipore Corporation, Mass., USA)."}, "[5]": {"system": "C57BL/6J mice", "assay": "Oral glucose tolerance test, fasting blood glucose and insulin in mice fed high-fat diet", "format": "in vivo, mouse", "protocol": "as §1, §2\nThe experimental animals were fasted for 18 hours after being raised eight weeks for experiment and orally administered d-glucose in an amount of 2 g/kg body weight. At 15 minutes, 30 minutes, 60 minutes, 120 minutes after the d-glucose administration, blood was collected from the tail veins of the mice. A glucose concentration in the collected blood was measured by means of a strip-operated blood glucose sensor (ONETOUCH Ultra, Inverness Medical Ltd. Stockport, UK).\nA glucose concentration in plasma during fasting was measured by means of an automatic biochemical analyzer (Express Plus, Chiron Diagnostics Co., USA) and a kit reagent for analysis was purchased from Bayer (Tarrytown, N.Y., USA). An insulin concentration in plasma was measured using the Rat Insulin RIA kit (LINCO Research, Inc, St. Charles, USA)."}}, "data": [{"smiles": "CSc1ccc(/C=C/C=C/C(=O)N2CCCCC2)cc1", "note": "[LJ-2501, (2E,4E)-5-(4-(methylthio)phenyl)-1-(piperine-1-yl)penta-2,4-diene-1-one]", "values": [{"measurement": "EC50", "setting": "[1]", "result": 101, "unit": "µM"}, {"measurement": "cumulative weight gain, reduction compared to high-fat diet control group (HFD)", "setting": "[2]", "result": 60, "unit": "%"}, {"measurement": "diet intake amount compared to HFD control group", "setting": "[2]", "result": "not greatly different"}, {"measurement": "epididymal fat, perirenal fat, mesenteric fat and retroperitoneal fat weights compared to HFD (in words)", "setting": "[2]", "result": "significant reduction"}, {"measurement": "total weight of visceral fats (four fat types), reduction compared to HFD", "setting": "[2]", "result": 72, "unit": "%"}, {"measurement": "visceral fat amount in abdominal section image compared to HFD (naked eye)", "setting": "[2]", "result": "remarkably reduced"}, {"measurement": "hepatic function indexes (ALT, AST) in the blood, reduction compared to HFD", "setting": "[3]", "result": "60-65%"}, {"measurement": "liver tissue cholesterol concentration, reduction compared to HFD", "setting": "[3]", "result": 53, "unit": "%"}, {"measurement": "liver tissue free fatty acid concentration, reduction compared to HFD", "setting": "[3]", "result": 77, "unit": "%"}, {"measurement": "liver tissue neutral fat concentration, reduction compared to HFD", "setting": "[3]", "result": 35, "unit": "%"}, {"measurement": "liver weight, reduction compared to high-fat diet control group", "setting": "[3]", "result": 41, "unit": "%"}, {"measurement": "size of the liver compared to HFD group (photograph)", "setting": "[3]", "result": "relatively small"}, {"measurement": "blood IL-6 concentration, reduction compared to HFD", "setting": "[4]", "result": 38, "unit": "%"}, {"measurement": "blood MCP-1 concentration, reduction compared to HFD", "setting": "[4]", "result": 22, "unit": "%"}, {"measurement": "blood TNF-α concentration, reduction compared to HFD", "setting": "[4]", "result": 25, "unit": "%"}, {"measurement": "blood leptin concentration, reduction compared to HFD", "setting": "[4]", "result": 25, "unit": "%"}, {"measurement": "blood glucose concentrations after oral glucose compared to HFD (in words)", "setting": "[5]; 2 g/kg glucose orally, 15, 30, 60 and 120 minutes", "result": "reduced in all time slots"}, {"measurement": "insulin resistance index (HOMA-IR), reduction compared to HFD", "setting": "[5]; calculated from fasting glucose and insulin, 10 weeks", "result": 61, "unit": "%"}, {"measurement": "blood glucose concentration during fasting, reduction compared to HFD", "setting": "[5]; compound in high-fat diet for 10 weeks", "result": 20, "unit": "%"}, {"measurement": "blood insulin concentration, reduction compared to HFD", "setting": "[5]; compound in high-fat diet for 10 weeks, fasting", "result": 59, "unit": "%"}, {"measurement": "area under the curve (AUC) of blood glucose concentration, reduction compared to HFD", "setting": "[5]; oral glucose tolerance test, 2 g/kg glucose", "result": 35, "unit": "%"}]}]}
